Key:
[1] = system: A549 cells; assay: Western blot of phenotype-related proteins (E-CAD, ZEB1) in EMT-induced lung cancer cells; type: cell-based
Method: The activity of TGF-β in a tumor microenvironment performs various functions, such as promoting cancer growth and EMT. Cancer cells were treated with TGF-β, an external stimulus, to induce EMT, and the results were illustrated in FIG. 1. To this end, A549 cells (KCBL No. 10185) as a lung cancer cell line were purchased from the Korean Cell Line Bank (KCLB). EMT was induced by treating the A549 cells with TGF-β (5 ng/mL, Peprotech, Cranbury, NJ, USA) for 48 hours. Changes in protein expression of cancer cells were confirmed through western blot analysis in the following process. First, cells were lysed in a lysis buffer [including 20 mM HEPES, pH 7.2, 150 mM NaCl, 0.5% Triton X-100, 10% glycerol, protease/phosphatase inhibitor mixture (protease/phosphatase inhibitor cocktail (Thermofisher, Waltham, MA))]. The lysate was centrifuged at 13,000 rpm at 4° C. for 20 minutes, and the supernatant was obtained and separated by SDS-PAGE, and then subjected to western blot analysis. To observe the amounts of proteins, E-cadherin (sc-21791), p53 (sc-126), SMAD4 (sc-7966), ZEB1 (sc-515797), mouse IgG (sc-2025) and rabbit IgG (#sc-2027) antibodies (purchased from Santa Cruz Biotechnology (Santa Cruz, CA, USA)) were used. In addition, ERK1/2 (#9102), phospho-ERK1/2 (#9106), phospho-MEK1/2 (#9121) and MYC (#13987) antibodies (Cell Signaling Technology (Beverly, MA, USA)) were used and the amounts of the proteins were observed. In addition, the rabbit polyclonal anti-GAPDH antibody was provided and used from the Korea Research Institute of Bioscience and Biotechnology.
TGF-β-treated cancer cells and -untreated cancer cells were treated with Nutlin-3a (5 μM, Sigma, St. Louis, Mo) to activate p53. It was confirmed whether the epithelial cell phenotype was restored according to p53 activation, and the results were shown in FIG. 2. At this time, after inducing EMT of A549 cells under the same conditions as in Example 1-1, Nutlin-3a (1 μM, Sigma, St. Louis, Mo) was treated, and Western blot and qRT-PCR were performed in the same method as in Example 1-1. […]

[2] = system: A549 cells; assay: qRT-PCR of genes related to mesenchymal cells, epithelial cells and stemness; type: cell-based
Method: In addition, qRT-PCR was performed to perform transcript analysis for all genes (n=3, mean±SD). The qRT-PCR analysis was performed using a PCR system (Veriti 96well Thermal Cycler, Applied Biosystems, Waltham, MA, USA), and the qRT-PCR analysis was performed using the QuantStudio 5 real-time PCR system (Applied Biosystems, Foster City, CA), samples containing 20 μL of cDNA, primers, and SYBR Master Mix (Genet Bio, Daejeon, Korea).
TGF-β-treated cancer cells and -untreated cancer cells were treated with Nutlin-3a (5 μM, Sigma, St. Louis, Mo) to activate p53. It was confirmed whether the epithelial cell phenotype was restored according to p53 activation, and the results were shown in FIG. 2. At this time, after inducing EMT of A549 cells under the same conditions as in Example 1-1, Nutlin-3a (1 μM, Sigma, St. Louis, Mo) was treated, and Western blot and qRT-PCR were performed in the same method as in Example 1-1.
In addition, in order to measure cell viability, the A549 cells from which the SMAD4 gene was deleted as described above were seeded in a 96-well plate and after 24 hours, EMT was induced and Nutlin-3a (1 μM) was treated, and then an anticancer drug 5-FU (1 μM) or DOX (0.5 μM) was treated for 5 days. In FIG. 4A, after 5 days, the cells were imaged using IncuCyte ZOOM (Sartorius, Gottingen, Germany), and the cell viability was measured by confluence of adherent living cells using IncuCyte software. In addition, the results were confirmed by qRT-PCR in the same manner as in Example 1-1 and illustrated in FIG. 4B (n=3, mean±SD).
Alternatively, in the same manner as in Example 2, the A549 cells from which the SMAD4 gene was deleted were treated with shRNAs set forth in SEQ ID NO: 2 (shERK1) and SEQ ID NO: 3 (shERK2), thereby deleting the ERK gene. Then, the results were confirmed by western blot analysis or qRT-PCR (n=3, mean±SD).

[3] = A549 cells, TGF-β 5 ng/mL for 48 hours

Molecule	epithelial cell phenotype (E-CAD+/ZEB1−), protein expression ([1]; TGF-β-treated A549 cells (TGF-β maintained))	epithelial cell phenotype (E-CAD+/ZEB1−), protein expression ([1]; TGF-β-untreated A549 cells)	activity of SNAI1 gene (mesenchymal) ([2]; TGF-β-treated A549 cells)	activity of TWIST1 gene (mesenchymal) ([2]; TGF-β-treated A549 cells)	activity of ZEB1 gene (mesenchymal) ([2]; TGF-β-treated A549 cells)	activity of genes CDH1 and EpCAM related to epithelial cells ([2]; TGF-β-treated A549 cells)	expression of the E-cadherin protein [1, 3]	expression of GRHL2 and OVOL1 genes related to epithelial cells [2, 3]	expression of genes CDH1 and EpCAM related to epithelial cells [2, 3]	expression of genes SMAD4, ZEB1, VIM, SNAI1, SNAI2 related to mesenchymal cells [2, 3]
COc1ccc(C2=N[C@@H](c3ccc(Cl)cc3)[C@@H](c3ccc(Cl)cc3)N2C(=O)N2CCNC(=O)C2)c(OC(C)C)c1 [Nutlin-3a]	converged to inactivation of E-CAD and inactivation of ZEB1	restored	suppressed	almost no change	significantly inhibited	rather decreased or still showed the low activity	–	–	–	–
transforming growth factor beta [TGF-β]	–	–	–	–	–	–	reduced	did not show significant changes	reduced	activated

Source: patent publication US20250235446A1, “COMPOSITION FOR INHIBITING METASTASIS AND ENHANCING ANTICANCER DRUG SENSITIVITY” (Korea Advanced Institute of Science and Technology, priority 2020, published 2025)
